Assay results published in US8283353B2, “Fused ring compound and use thereof” (Takeda Pharmaceutical Company Limited, priority 2009, dated 2012).

Tests used:
[1] = target: T1, human PPARγ (Homo sapiens, UniProt P37231); test: PPARγ agonistic activity: luciferase reporter assay in PPARγ:RXRα:4ERPP/CHO-K1 cells; assay type: cell-based; settings: CHO-K1, test compound 10^−6 M; luciferase activity of control compound X (1 μM) = 100%, non-administration group = 0%
T1 construct: expressed in transfected cells
T1 sequence (P37231 1-477 isoform P37231-2): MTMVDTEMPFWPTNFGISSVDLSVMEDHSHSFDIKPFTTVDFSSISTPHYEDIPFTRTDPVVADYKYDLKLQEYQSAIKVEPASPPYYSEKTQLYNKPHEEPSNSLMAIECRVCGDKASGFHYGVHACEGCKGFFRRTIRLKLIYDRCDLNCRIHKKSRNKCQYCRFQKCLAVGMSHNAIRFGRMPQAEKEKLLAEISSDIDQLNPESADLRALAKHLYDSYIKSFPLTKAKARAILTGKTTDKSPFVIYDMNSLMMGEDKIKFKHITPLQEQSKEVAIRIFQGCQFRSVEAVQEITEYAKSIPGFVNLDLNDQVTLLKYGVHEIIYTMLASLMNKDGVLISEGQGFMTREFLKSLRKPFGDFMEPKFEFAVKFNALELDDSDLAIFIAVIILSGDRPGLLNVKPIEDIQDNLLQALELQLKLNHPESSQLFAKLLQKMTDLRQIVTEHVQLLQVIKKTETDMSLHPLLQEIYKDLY
T1 sequence (P19793 1-462 partner): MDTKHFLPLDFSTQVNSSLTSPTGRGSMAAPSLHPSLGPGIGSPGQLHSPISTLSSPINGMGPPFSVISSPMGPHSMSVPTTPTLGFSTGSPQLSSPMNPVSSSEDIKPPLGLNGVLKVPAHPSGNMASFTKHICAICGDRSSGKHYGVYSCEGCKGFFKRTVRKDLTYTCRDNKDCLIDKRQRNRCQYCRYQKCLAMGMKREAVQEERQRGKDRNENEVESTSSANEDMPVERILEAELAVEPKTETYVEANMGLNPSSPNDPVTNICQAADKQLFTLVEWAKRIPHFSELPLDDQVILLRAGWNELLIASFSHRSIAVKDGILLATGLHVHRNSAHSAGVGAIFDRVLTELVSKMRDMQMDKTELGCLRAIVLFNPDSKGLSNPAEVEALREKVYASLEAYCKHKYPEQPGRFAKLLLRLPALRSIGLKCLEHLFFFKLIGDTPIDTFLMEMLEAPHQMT
Text: A CHO-K1 cell cultured in a 150 cm^2 cell culture flask [manufactured by Corning Costar Corporation, USA] comprising Ham's F12 medium [manufactured by INVITROGEN, USA] supplemented with 10% fetal bovine serum [manufactured by INVITROGEN, USA] was taken off by treating with 0.5 g/L trypsin-0.2 g/L EDTA (ethylenediamine tetraacetate) [manufactured by Life Technologies, Inc., USA], and then the cell was washed with PBS (Phosphate-buffered saline) [manufactured by INVITROGEN, USA], centrifuged (1000 rpm, 5 minutes) and suspended in PBS. Subsequently, DNA was introduced into the cell under the conditions shown below using GENE PULSER [manufactured by Bio-Rad Laboratories, USA].
Namely, to a cuvette having a 0.4 cm gap were added 8×10^6 cells and 10 μg of plasmid pVgRXR2-hPPARγ obtained in the above-mentioned (4) and 10 μg of reporter plasmid pGL3-4ERPP-TK neo obtained in the above-mentioned (3), which was subjected to electroporation at the voltage of 0.25 kV under the capacitance of […] Subsequently, the cell was transferred into a F12 medium comprising 10% fetal bovine serum and cultured for 24 hours, and then the cell was taken off again and centrifuged. Then, the pellet was suspended in Ham's F12 medium comprising 10% fetal bovine serum supplemented with 500 μg/ml of Geneticin [manufactured by INVITROGEN, USA] and 250 μg/ml of Zeocin [manufactured by INVITROGEN, USA]. The obtained suspension was diluted to the density of 10^4 cells/ml and inoculated in a 96-well plate [manufactured by Corning Costar Corporation, USA], which was cultured in a CO2 gas incubator at 37° C., whereby obtaining a Geneticin- and Zeocin-resistant transformant.
Subsequently, after the transformed cell line thus obtained was cultured in a 24-well plate [manufactured by Corning Costar Corporation, USA], a cell line in which expression of the luciferase was induced, i.e., PPARγ:RXRα:4ERPP/CHO-K1 cell was selected by the addition of 10 μM pioglitazone hydrochloride.
PPARγ:RXRα:4ERPP/CHO-K1 cells obtained in the above-mentioned (5) were cultured in F12 medium [manufactured by INVITROGEN, USA] containing 10% fetal bovine serum [manufactured by MOREGATE, Australia], seeded in a 96 well half-area white plate [manufactured by Corning Coster Corporation, USA] at 5×10^3 cells/well, and cultured in a CO2 incubator at 37° C. overnight.
Then, the medium was removed from the 96 well half-area white plate, hamF12 medium containing 0.1% fatty acid-free bovine serum albumin (BSA) (45 μl) and a test compound (5 μl) were added, and the mixture was cultured in the CO2 incubator at 37° C. for 1 day. After removing the medium, Picagene 7.5 [manufactured by Dai Nippon Inki, Japan] (20 μl) diluted 2-fold with HBSS (HANKS' BALANCED SALT SOLUTION) [manufactured by BIO […], USA] was added, and the mixture was stirred. Using 1420 ARVO Multilabel Counter [manufactured by PerkinElmer, USA], luciferase activity was measured. The percentage (%) was calculated from the luciferase activity of the test compound when the luciferase activity of the control compound (compound X: 5-[3-(4-{[2-(2-furyl)-5-methyl-1,3-oxazol-4-yl]methoxy}-3-methoxyphenyl)propyl]-1,3-oxazolidine-2,4-dione) (1 μM) was taken as 100% and the luciferase activity of the test compound non-administration group was taken as 0%.

[2] = target: T2, human AT1 receptor (Homo sapiens, UniProt P30556); test: AT1 receptor antagonistic activity: [125I]-angiotensin II binding assay on human AT1 receptor-expressing CHO-K1 cellular membrane fraction; settings: 22.5 pM [125I]-angiotensin II, 1 hr room temperature
T2 construct: expressed in transfected cells; membrane fraction
T2 sequence (P30556 1-359): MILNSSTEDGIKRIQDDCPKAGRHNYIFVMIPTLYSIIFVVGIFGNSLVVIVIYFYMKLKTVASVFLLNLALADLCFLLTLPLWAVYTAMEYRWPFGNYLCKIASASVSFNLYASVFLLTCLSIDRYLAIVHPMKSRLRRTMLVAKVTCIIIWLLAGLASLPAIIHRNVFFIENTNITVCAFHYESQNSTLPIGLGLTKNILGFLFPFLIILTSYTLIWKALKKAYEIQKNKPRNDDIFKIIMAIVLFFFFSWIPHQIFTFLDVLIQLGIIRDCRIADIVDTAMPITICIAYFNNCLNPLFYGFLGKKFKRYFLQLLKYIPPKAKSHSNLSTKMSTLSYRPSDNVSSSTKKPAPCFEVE
Description: CHO-K1 cell (RIKEN, Japan) capable of stable expression of human AT1 receptor was cultured, recovered, suspended in homogenize buffer (10 mM NaHCO3 (pH 7.4), 5 mM EDTA, 1× Complete EDTA free) [manufactured by Roche, Switzerland], and homogenized. The homogenate was centrifuged at low-speed (900×g, 10 min, 4° C.), and the supernatant was recovered and ultracentrifuged (90,000×g, 1 hr, 4° C.). The supernatant was discarded, and the pellets were resuspended in suspension buffer (50 mM Tris (pH 7.4), 1 mM EDTA, 1× Complete EDTA free).
(9 μg) in the presence of AT1 membrane and test compound in 100 μl, (total reaction volume) of reaction buffer (50 mM Tris (pH 7.4), 10 mM MgCl2 supplemented or not supplemented with 0.3 mg/mL fatty acid-free bovine serum albumin [manufactured by Wako Pure Chemical Industries, Ltd., Japan]). The reaction mixture was incubated in 96 well polypropylene plate for 1 hr at room temperature, and the reaction was quenched by rapid filtration (96 well cell harvester) through a GF/C filter treated with wash buffer (50 mM Tris (pH 7.4)). Subsequently, the filter was washed 5 times with 0.3 mL of ice-cooled wash buffer. […] Total binding was measured in the presence of 1% DMSO and nonspecific binding was measured in the presence of […] Candesartan.

| activation at 1 µM [1] | IC50 [2] | Compound |
| --- | --- | --- |
| 18% |  | CCCc1c(Cc2ccc(-c3ccccc3-c3noc(=O)[nH]3)cc2F)c(=O)n(C2CCOC2)c2nc(C)nn12 (stereo not shown) [Example 120, 6-{[3-fluoro-2′-(5-oxo-4,5-dihydro-1,2,4-oxadiazol-3-yl)biphenyl-4-yl]methyl}-2-methyl-7-propyl-4-(tetrahydrofuran-3-yl)[1,2,4]triazolo[1,5-a]pyrimidin-5(4H)-one] |
| 37% |  | CCCc1c(Cc2ccc(-c3ccccc3-c3noc(=O)[nH]3)cc2)c(=O)n([C@H]2CC[C@@H](OCC(C)(C)O)CC2)c2ncnn12 [Example 158, 4-[cis-4-(2-hydroxy-2-methylpropoxy)cyclohexyl]-6-{[2′-(5-oxo-4,5-dihydro-1,2,4-oxadiazol-3-yl)biphenyl-4-yl]methyl}-7-propyl[1,2,4]triazolo[1,5-a]pyrimidin-5(4H)-one] |
|  | 1.3 nM | CCCCc1c(Cc2ccc(-c3ccccc3-c3noc(=O)[nH]3)cc2)c(=O)n(C2CCOC(C)C2)c2ncnn12 (stereo not shown) [Example 160, 7-butyl-4-(2-methyltetrahydro-2H-pyran-4-yl)-6-{[2′-(5-oxo-4,5-dihydro-1,2,4-oxadiazol-3-yl)biphenyl-4-yl]methyl}[1,2,4]triazolo[1,5-a]pyrimidin-5(4H)-one] |
| 32% |  | CCCc1c(Cc2ccc(-c3ccccc3-c3noc(=O)[nH]3)cc2)c(=O)n([C@H]2CC[C@H](OCC(C)(C)O)CC2)c2ncnn12 [Example 381, 4-[trans-4-(2-hydroxy-2-methylpropoxy)cyclohexyl]-6-{[2′-(5-oxo-4,5-dihydro-1,2,4-oxadiazol-3-yl)biphenyl-4-yl]methyl}-7-propyl[1,2,4]triazolo[1,5-a]pyrimidin-5(4H)-one] |
| 17% |  | CCCc1c(Cc2ccc(-c3ccccc3-c3noc(=O)[nH]3)cc2F)c(=O)n([C@H]2C[C@H](OCC(C)(C)O)C2)c2nc(C)nn12 [Example 403, 6-{[3-fluoro-2′-(5-oxo-4,5-dihydro-1,2,4-oxadiazol-3-yl)biphenyl-4-yl]methyl}-4-[trans-3-(2-hydroxy-2-methylpropoxy)cyclobutyl]-2-methyl-7-propyl[1,2,4]triazolo[1,5-a]pyrimidin-5(4H)-one] |
| 28% |  | CCCc1c(Cc2ccc(-c3ccccc3-c3noc(=O)[nH]3)cc2F)c(=O)n([C@H]2C[C@@H](OCC(C)(C)O)C2)c2nc(C)nn12 [Example 404, 6-{[3-fluoro-2′-(5-oxo-4,5-dihydro-1,2,4-oxadiazol-3-yl)biphenyl-4-yl]methyl}-4-[cis-3-(2-hydroxy-2-methylpropoxy)cyclobutyl]-2-methyl-7-propyl[1,2,4]triazolo[1,5-a]pyrimidin-5(4H)-one] |

The next lines start with the compound.

| Compound | activation at 1 µM [1] | IC50 [2] |
| --- | --- | --- |
| CCCc1c(Cc2ccc(-c3ccccc3-c3noc(=O)[nH]3)cc2)c(=O)n([C@H]2CC[C@H](OCC(C)O)CC2)c2ccnn12 (relative stereo) [Example 419, 4-[trans-4-(2-hydroxypropoxy)cyclohexyl]-6-{[2′-(5-oxo-4,5-dihydro-1,2,4-oxadiazol-3-yl)biphenyl-4-yl]methyl}-7-propylpyrazolo[1,5-a]pyrimidin-5(4H)-one] | 21% |  |
| CCCc1c(Cc2ccc(-c3ccccc3-c3noc(=O)[nH]3)cc2)c(=O)n([C@H]2CC[C@H](OC(C)C(C)(C)O)CC2)c2ncnn12 (single isomer, unassigned) [Example 318, 4-[trans-4-(2-hydroxy-1,2-dimethylpropoxy)cyclohexyl]-6-{[2′-(5-oxo-4,5-dihydro-1,2,4-oxadiazol-3-yl)biphenyl-4-yl]methyl}-7-propyl[1,2,4]triazolo[1,5-a]pyrimidin-5(4H)-one (retention time: short)] |  | 1.8 nM |
| CCCc1c(Cc2ccc(-c3ccccc3-c3noc(=O)[nH]3)cc2)c(=O)n([C@H]2CC[C@H](OCC(C)O)CC2)c2ccnn12 (single isomer, unassigned) [Example 440, 4-[trans-4-(2-hydroxypropoxy)cyclohexyl]-6-{[2′-(5-oxo-4,5-dihydro-1,2,4-oxadiazol-3-yl)biphenyl-4-yl]methyl}-7-propylpyrazolo[1,5-a]pyrimidin-5(4H)-one (optically active form, retention time: short)] | 16% |  |
| CCCc1c(Cc2ccc(-c3ccccc3-c3noc(=O)[nH]3)cc2)c(=O)n([C@H]2CC[C@H](OCC(C)(C)O)CC2)c2ccnn12 [Example 413, 4-[trans-4-(2-Hydroxy-2-methylpropoxy)cyclohexyl]-6-{[2′-(5-oxo-4,5-dihydro-1,2,4-oxadiazol-3-yl)biphenyl-4-yl]methyl}-7-propylpyrazolo[1,5-a]pyrimidin-5(4H)-one] | 25% |  |
